Results as given in the NIST ThermoML archive (doi:10.1021/je060203o).

Conditions: Liquid; for mass density: Vibrating tube method; for speed of sound: Pulse-echo method

CCCCCn1cc[n+](C)c1.O=S(=O)([N-]S(=O)(=O)C(F)(F)F)C(F)(F)F
Conditions	mass density [kg/m3]	speed of sound [m/s]
313.15 K, 25860 kPa	1409.15	–
313.15 K, 31480 kPa	1412.95	–
313.15 K, 37770 kPa	1417.13	–
313.15 K, 44170 kPa	1421.26	–
313.15 K, 50750 kPa	1425.48	–
313.15 K, 59590 kPa	1431.06	–
318.15 K, 100 kPa	1385.75	–
318.15 K, 500 kPa	–	1187.3
318.15 K, 1830 kPa	1387.09	–
318.15 K, 3500 kPa	–	1198.6
318.15 K, 7000 kPa	–	1211.5
318.15 K, 10000 kPa	–	1222.4
318.15 K, 10020 kPa	1393.29	–
318.15 K, 13500 kPa	–	1234.8
318.15 K, 14980 kPa	1396.9	–
318.15 K, 16990 kPa	–	1246.9
318.15 K, 19750 kPa	1400.31	–
318.15 K, 20000 kPa	–	1257
318.15 K, 25860 kPa	1404.59	–
318.15 K, 30000 kPa	–	1290
318.15 K, 31480 kPa	1408.43	–
318.15 K, 37770 kPa	1412.65	–
318.15 K, 40000 kPa	–	1321
318.15 K, 44170 kPa	1416.86	–
318.15 K, 50000 kPa	–	1350.2
318.15 K, 50750 kPa	1421.15	–
318.15 K, 59590 kPa	1426.81	–
318.15 K, 60000 kPa	–	1378.2
318.15 K, 70000 kPa	–	1404.9
318.15 K, 80000 kPa	–	1430.7
318.15 K, 90000 kPa	–	1455.5
318.15 K, 100000 kPa	–	1479.5
318.15 K, 112500 kPa	–	1508
318.15 K, 125000 kPa	–	1535.9
318.15 K, 137510 kPa	–	1562.6
318.15 K, 150000 kPa	–	1587.4
323.15 K, 100 kPa	1381.45	–
323.15 K, 1830 kPa	1382.69	–
323.15 K, 10020 kPa	1388.89	–
323.15 K, 14980 kPa	1392.55	–
323.15 K, 19750 kPa	1395.96	–
323.15 K, 25860 kPa	1400.22	–
323.15 K, 31480 kPa	1404.06	–
323.15 K, 37770 kPa	1408.3	–
323.15 K, 44170 kPa	1412.52	–
323.15 K, 50750 kPa	1416.77	–
323.15 K, 59590 kPa	1422.52	–
325.15 K, 100 kPa	1379.56	–
325.15 K, 1830 kPa	1380.89	–
325.15 K, 10020 kPa	1387.23	–
325.15 K, 14980 kPa	1390.89	–
325.15 K, 19750 kPa	1394.39	–
325.15 K, 25860 kPa	1398.72	–
325.15 K, 31480 kPa	1402.63	–
325.15 K, 37770 kPa	1406.92	–
325.15 K, 44170 kPa	1411.19	–
325.15 K, 50750 kPa	1415.51	–
325.15 K, 59590 kPa	1421.18	–
327.15 K, 100 kPa	1377.56	–
327.15 K, 1830 kPa	1378.86	–
327.15 K, 10020 kPa	1385.24	–
327.15 K, 14980 kPa	1388.96	–
327.15 K, 19750 kPa	1392.45	–
327.15 K, 25860 kPa	1396.84	–
327.15 K, 31480 kPa	1400.77	–
327.15 K, 37770 kPa	1405.12	–
327.15 K, 44170 kPa	1409.39	–
327.15 K, 50750 kPa	1413.81	–
327.15 K, 59590 kPa	1419.56	–
328.15 K, 500 kPa	–	1165.8
328.15 K, 3500 kPa	–	1177.4
328.15 K, 7000 kPa	–	1190.6
328.15 K, 10000 kPa	–	1201.8
328.15 K, 13500 kPa	–	1214.2
328.15 K, 16990 kPa	–	1226.6
328.15 K, 20000 kPa	–	1236.9
328.15 K, 30000 kPa	–	1270.5
328.15 K, 40000 kPa	–	1301.9
328.15 K, 50000 kPa	–	1331.7
328.15 K, 60000 kPa	–	1360.1
328.15 K, 70000 kPa	–	1387.2
328.15 K, 80000 kPa	–	1413.4
328.15 K, 90000 kPa	–	1438.4
328.15 K, 100000 kPa	–	1462.6
328.15 K, 112500 kPa	–	1491.6
328.15 K, 125000 kPa	–	1519.6
328.15 K, 137510 kPa	–	1546.6
328.15 K, 150000 kPa	–	1571.5
329.15 K, 100 kPa	1375.46	–
329.15 K, 1830 kPa	1376.78	–
329.15 K, 10020 kPa	1383.2	–
329.15 K, 14980 kPa	1386.93	–
329.15 K, 19750 kPa	1390.47	–
329.15 K, 25860 kPa	1394.89	–
329.15 K, 31480 kPa	1398.85	–
329.15 K, 37770 kPa	1403.2	–
329.15 K, 44170 kPa	1407.56	–
329.15 K, 50750 kPa	1411.94	–
329.15 K, 59590 kPa	1417.73	–
331.15 K, 100 kPa	1373.32	–
331.15 K, 1830 kPa	1374.64	–
331.15 K, 10020 kPa	1381.17	–
331.15 K, 14980 kPa	1384.96	–
331.15 K, 19750 kPa	1388.53	–
331.15 K, 25860 kPa	1392.98	–
331.15 K, 31480 kPa	1396.98	–
331.15 K, 37770 kPa	1401.34	–
331.15 K, 44170 kPa	1405.67	–
331.15 K, 50750 kPa	1410.08	–
331.15 K, 59590 kPa	1415.87	–
333.15 K, 100 kPa	1371	–
333.15 K, 1830 kPa	1372.46	–
333.15 K, 10020 kPa	1379.05	–
333.15 K, 14980 kPa	1382.89	–
333.15 K, 19750 kPa	1386.48	–
333.15 K, 25860 kPa	1390.95	–
333.15 K, 31480 kPa	1395.01	–
333.15 K, 37770 kPa	1399.42	–
333.15 K, 44170 kPa	1403.81	–
333.15 K, 50750 kPa	1408.2	–
333.15 K, 59590 kPa	1414.01	–
338.15 K, 500 kPa	–	1144.8
338.15 K, 3500 kPa	–	1156.5
338.15 K, 7000 kPa	–	1170
338.15 K, 10000 kPa	–	1181.4
338.15 K, 13500 kPa	–	1194.3
338.15 K, 16990 kPa	–	1206.7
338.15 K, 20000 kPa	–	1217.2
338.15 K, 30000 kPa	–	1251.3
338.15 K, 40000 kPa	–	1283.3
338.15 K, 50000 kPa	–	1313.6
338.15 K, 60000 kPa	–	1342.4
338.15 K, 70000 kPa	–	1369.8
338.15 K, 80000 kPa	–	1396.3
338.15 K, 90000 kPa	–	1421.6
338.15 K, 100000 kPa	–	1446.3
338.15 K, 112500 kPa	–	1475.3
338.15 K, 125000 kPa	–	1503.7
338.15 K, 137510 kPa	–	1530.9
338.15 K, 150000 kPa	–	1556.2
